Measured values taken from US10695334B2, “Heteroaromatic carboxamide derivatives as plasma kallikrein inhibitors” (Boehringer Ingelheim International GmbH, priority 2018, dated 2020).

Target: Human PKK (Homo sapiens (Human), UniProt P03952)
Assay: Inhibition of PKK, endpoint assay (human PKK)
Assay type: biochemical
Settings: substrate H-Pro-Phe-Arg-AMC, 1 h room temperature
Protocol: Subsequently, PPACK II (Calbiochem) was added as a stop solution to achieve a final concentration of 1 μM and fluorescence was measured using an Envision Reader (PerkinElmer) with the wavelength excitation setting of 355 nm and the wavelength emission setting of 460 nm.

Sequence of Human PKK (P03952 391-638): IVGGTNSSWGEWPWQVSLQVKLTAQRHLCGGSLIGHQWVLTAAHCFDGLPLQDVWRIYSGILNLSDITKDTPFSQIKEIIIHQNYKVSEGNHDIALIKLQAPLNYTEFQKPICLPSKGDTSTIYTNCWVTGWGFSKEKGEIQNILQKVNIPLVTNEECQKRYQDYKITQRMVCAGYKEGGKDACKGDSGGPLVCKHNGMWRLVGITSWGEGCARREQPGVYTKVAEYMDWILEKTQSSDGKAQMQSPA
Sequence of Human PKK (P03952 20-390 partner): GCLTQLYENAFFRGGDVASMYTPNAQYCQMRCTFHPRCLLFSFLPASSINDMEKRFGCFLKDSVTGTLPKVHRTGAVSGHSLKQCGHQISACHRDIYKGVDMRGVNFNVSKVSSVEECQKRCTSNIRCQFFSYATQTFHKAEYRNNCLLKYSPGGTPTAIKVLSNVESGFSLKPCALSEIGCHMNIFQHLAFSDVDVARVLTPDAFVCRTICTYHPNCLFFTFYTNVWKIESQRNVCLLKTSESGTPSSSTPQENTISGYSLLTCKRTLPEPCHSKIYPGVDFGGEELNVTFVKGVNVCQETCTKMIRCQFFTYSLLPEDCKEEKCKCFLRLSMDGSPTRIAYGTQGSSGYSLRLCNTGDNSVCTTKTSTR

Row | SMILES | IC50 [nM]
1 | Cc1nc(N2CC3(CCOC3)C2)ccc1Cn1cc(C(=O)N[C@@H]2CCc3c2n[nH]c3C)cn1 [Example 40, N-[(6R)-3-Methyl-2H,4H,5H,6H-cyclopenta[c]pyrazol-6-yl]-1-[(2-methyl-6-{6-oxa-2-azaspiro[3.4]octan-2-yl]pyridin-3-yl)methyl]-1H-pyrazole-4-carboxamide] | 137
2 | Cc1nc(N2CC(n3cccn3)C2)ccc1Cn1cc(C(=O)N[C@@H]2CCc3c2n[nH]c3C)cn1 [Example 58, N-[(6R)-3-Methyl-2H,4H,5H,6H-cyclopenta[c]pyrazol-6-yl]-1-({2-methyl-6[3-(1H-pyrazol-1-yl)azetidin-1-yl]pyridin-3-yl}methyl)-1H-pyrazole-4-carboxamide] | 20
3 | Cc1nc(N2CC3(CC(O)C3)C2)ccc1Cn1cc(C(=O)N[C@@H]2CCc3c2n[nH]c3C)cn1 [Example 76, 1-[(6-{6-Hydroxy-2-azaspiro[3.3]heptan-2-yl}-2-methylpyridin-3-yl)methyl]-N-[(6R)-3-methyl-2H,4H,5H,6H-cyclopenta[c]pyrazol-6-yl]-1H-pyrazole-4-carboxamide] | 572
4 | Cc1nc(N2CC3(CCOCC3)C2)ccc1Cn1cc(C(=O)N[C@@H]2CCc3c2n[nH]c3C)cn1 [Example 63, N-[(6R)-3-Methyl-2H,4H,5H,6H-cyclopenta[c]pyrazol-6-yl]-1-[(2-methyl-6-{7-oxa-2-azaspiro[3.5]nonan-2-yl]pyridin-3-yl)methyl]-1H-pyrazole-4-carboxamide] | 85
5 | Cc1nc(N2CC3CC(C2)O3)ccc1Cn1cc(C(=O)N[C@@H]2CCc3c2n[nH]c3C)cn1 [Example 64, N-[(6R)-3-Methyl-2H,4H,5H,6H-cyclopenta[c]pyrazol-6-yl]-1-[(2-methyl-6-{6-oxa-3-azabicyclo[3.1.1]heptan-3-yl}pyridin-3-yl)methyl]-1H-pyrazole-4-carboxamide] | 32
6 | Cc1nc(N2CCC3C(CC2)C3(F)F)ccc1Cn1cc(C(=O)N[C@@H]2CCc3c2n[nH]c3C)cn1 (stereo partly drawn) [Example 66, 1-[(6-{8,8-Difluoro-4-azabicyclo[5.1.0]octan-4-yl]-2-methylpyridin-3-yl)methyl]-N-[(6R)-3-methyl-2H,4H,5H,6H-cyclopenta[c]pyrazol-6-yl]-1H-pyrazole-4-carboxamide] | 51
7 | Cc1nc(N2CC3COCC(C3)C2)ccc1Cn1cc(C(=O)N[C@@H]2CCc3c2n[nH]c3C)cn1 [Example 43, N-[(6R)-3-Methyl-2H,4H,5H,6H-cyclopenta[c]pyrazol-6-yl]-1-[(2-methyl-6-{3-oxa-7-azabicyclo[3.3.1]nonan-7-yl]pyridin-3-yl)methyl]-1H-pyrazole-4-carboxamide] | 23
8 | Cc1nc(N2CC3CC2C3)ccc1Cn1cc(C(=O)N[C@@H]2CCc3c2n[nH]c3C)cn1 [Example 49, 1-[(6-{2-Azabicyclo[2.1.1]hexan-2-yl}-2-methylpyridin-3-yl)methyl]-N-[(6R)-3-methyl-2H,4H,5H,6H-cyclopenta[c]pyrazol-6-yl]-1H-pyrazole-4-carboxamide] | 42
9 | Cc1nc(N2CC(C#N)C2)ccc1Cn1cc(C(=O)N[C@@H]2CCc3c2n[nH]c3C)cn1 [Example 57, 1-{[6-(3-Cyanoazetidin-1-yl)-2-methylpyridin-3-yl]methyl}-N-[(6R)-3-methyl-2H,4H,5H,6H-cyclopenta[c]pyrazol-6-yl]-1H-pyrazole-4-carboxamide] | 37
10 | Cc1nc(N2C[C@H]3COC[C@H]3C2)ccc1Cn1cc(C(=O)N[C@@H]2CCc3c2n[nH]c3C)cn1 [Example 72, 1-({6-[(3aR,6aS)-Hexahydro-1H-furo[3,4-c]pyrrol-5-yl]-2-methylpyridin-3-yl}methyl)-N-[(6R)-3-methyl-2H,4H,5H,6H-cyclopenta[c]pyrazol-6-yl]-1H-pyrazole-4-carboxamide] | 36
11 | Cc1nc(N2C[C@@H]3[C@@H](CO)[C@@H]3C2)ccc1Cn1cc(C(=O)N[C@@H]2CCc3c2n[nH]c3C)cn1 [Example 38, 1-({6-[(1R,5S,6R)-6-(Hydroxymethyl)-3-azabicyclo[3.1.0]hexan-3-yl]-2-methylpyridin-3-yl}methyl)-N-[(6R)-3-methyl-2H,4H,5H,6H-cyclopenta[c]pyrazol-6-yl]-1H-pyrazole-4-carboxamide] | 26

Now those with a lower IC50, led by results:

Row | IC50 [nM] | SMILES
12 | 2 | Cc1nc(N2CC3CC3C2)ccc1Cn1cc(C(=O)N[C@@H]2CCc3c(C)n[nH]c32)c(-c2cnn(C)c2)n1 (stereo partly drawn) [Example 32, 1-[(6-{3-Azabicyclo[3.1.0]hexan-3-yl}-2-methyl-pyridin-3-yl)methyl]-1′-methyl-N-[(6R)-3-methyl-1H,4H,5H,6H-cyclopenta[c]pyrazol-6-yl]-1H,1′H-[3,4′-bipyrazole]-4-carboxamide]
13 | 10 | Cc1nc(N2CCCCCC2)ccc1Cn1cc(C(=O)N[C@@H]2CCc3c2n[nH]c3C)cn1 [Example 65, 1-{[6-(Azepan-1-yl)-2-methylpyridin-3-yl]methyl}-N-[(6R)-3-methyl-2H,4H,5H,6H-cyclopenta[c]pyrazol-6-yl]-1H-pyrazole-4-carboxamide]
14 | 17 | Cc1nc(N2CC(C(F)(F)F)C2)ccc1Cn1cc(C(=O)N[C@@H]2CCc3c2n[nH]c3C)cn1 [Example 69, N-[(6R)-3-Methyl-2H,4H,5H,6H-cyclopenta[c]pyrazol-6-yl]-1-({2-methyl-6-[3-(trifluoromethyl)azetidin-1-yl]pyridin-3-yl}methyl)-1H-pyrazole-4-carboxamide]
15 | 7 | Cc1nc(N2CC3CCCC3C2)ccc1Cn1cc(C(=O)N[C@@H]2CCc3c2n[nH]c3C)cn1 (stereo partly drawn) [Example 62, N-[(6R)-3-Methyl-2H,4H,5H,6H-cyclopenta[c]pyrazol-6-yl]-1-[(2-methyl-6-{octahydrocyclopenta[c]pyrrol-2-yl}pyridin-3-yl)methyl]-1H-pyrazole-4-carboxamide]
16 | 2 | Cc1nc(N2CC3(CC3)C2)ccc1Cn1cc(C(=O)N[C@@H]2CCc3c(C)n[nH]c32)c(C)n1 [Example 24, 1-[(6-{5-Azaspiro[2.3]hexan-5-yl}-2-methylpyridin-3-yl)methyl]-3-methyl-N-[(6R)-3-methyl1H,4H,5H,6H-cyclopenta[c]pyrazol-6-yl]-1H-pyrazole-4-carboxamide]
17 | 7 | Cc1nc(N2CCC(C(F)(F)F)C2)ccc1Cn1cc(C(=O)N[C@@H]2CCc3c2n[nH]c3C)cn1 (stereo partly drawn) [Example 60, N-[(6R)-3-Methyl-2H,4H,5H,6H-cyclopenta[c]pyrazol-6-yl]-1-({2-methyl-6-[3-(trifluoromethyl)pyrrolidin-1-yl]pyridin-3-yl}methyl)-1H-pyrazole-4-carboxamide]
18 | 17 | Cc1nc(N2CCC3(CCOC3)C2)ccc1Cn1cc(C(=O)N[C@@H]2CCc3c2n[nH]c3C)cn1 (stereo partly drawn) [Example 73, N-[(6R)-3-Methyl-2H,4H,5H,6H-cyclopenta[c]pyrazol-6-yl]-1-[(2-methyl-6-{2-oxa-7-azaspiro[4.4]nonan-7-yl}pyridin-3-yl)methyl]-1H-pyrazole-4-carboxamide]
19 | 0.9 | Cc1nc(N2CC3CC3C2)ccc1Cn1cc(C(=O)N[C@@H]2CCc3c2n[nH]c3C)c(C(C)(C)O)n1 (stereo partly drawn) [Example 106, 1-[(6-{3-Azabicyclo[3.1.0]hexan-3-yl}-2-methylpyridin-3-yl)methyl]-3-(2-hydroxypropan-2-yl)-N-[(6R)-3-methy-2H,4H,5H,6H-cyclopenta[c]pyrazol-6-yl]-1H-pyrazole-4-carboxamide]
20 | 3 | COCc1nn(Cc2cnc(N3CC4C(C3)C4(F)F)nc2C)cc1C(=O)N[C@@H]1CCc2c(C)n[nH]c21 (stereo partly drawn) [Example 26, 1-[(2-{6,6-Difluoro-3-azabicyclo[3.1.0]hexan-3-yl}-4-methylpyrimidin-5-yl)methyl]-3-(methoxy-methyl)-N-[(6R)-3-methyl-1H,4H,5H,6H-cyclo-penta[c]pyrazol-6-yl]-1H-pyrazole-4-carboxamide]
21 | 6 | CCC1(C)CN(c2ccc(Cn3cc(C(=O)N[C@@H]4CCc5c4n[nH]c5C)cn3)c(C)n2)C1 [Example 42, 1-{[6-(3-Ethyl-3-methylazetidin-1-yl)-2-methylpyridin-3-yl]methyl}-N-[(6R)-3-methyl-2H,4H,5H,6H-cyclopenta[c]pyrazol-6-yl]-1H-pyrazole-4-carboxamide]
22 | 5 | Cc1nc(N2CC(C)C2)ccc1Cn1cc(C(=O)N[C@@H]2CCc3c2n[nH]c3C)cn1 [Example 61, N-[(6R)-3-Methyl-2H,4H,5H,6H-cyclopenta[c]pyrazol-6-yl]-1-{[2-methyl-6-(3-methylazetidin-1-yl)pyridin-3-yl]methyl}-1H-pyrazole-4-carboxamide]
23 | 19 | Cc1nc(N2C[C@@H]3CC(F)(F)C[C@@H]3C2)ccc1Cn1cc(C(=O)N[C@@H]2CCc3c2n[nH]c3C)cn1 [Example 75, 1-({6-[(3aR,6aS)-5,5-Difluoro-octahydrocyclopenta[c]pyrrol-2-yl]-2-methylpyridin-3-yl}-methyl)-N-[(6R)-3-methyl-2H,4H,5H,6H-cyclopenta[c]pyrazol-6-yl]-1H-pyrazole-4-carboxamide]
24 | 7 | Cc1nc(N2CC3CC3C2)ccc1Cn1cnc(C(=O)N[C@@H]2CCc3c2n[nH]c3C)n1 (stereo partly drawn) [Example 107, 1-[(6-{3-Azabicyclo[3.1.0]hexan-3-yl}-2-methylpyridin-3-yl)methyl]-N-[(6R)-3-methyl-2H,4H,5H,6H-cyclopenta[c]pyrazol-6-yl]-1H-1,2,4-triazole-3-carboxamide]
25 | 9 | Cc1nc(N2CCC3(C2)CC3(F)F)ccc1Cn1cc(C(=O)N[C@@H]2CCc3c2n[nH]c3C)cn1 (stereo partly drawn) [Example 78, 1-[(6-{1,1-Difluoro-5-azaspiro[2.4]heptan-5-yl}-2-methylpyridin-3-yl)methyl]-N-[(6R)-3-methyl-2H,4H,5H,6H-cyclopenta[c]pyrazol-6-yl]-1H-pyrazole-4-carboxamide]
26 | 13 | Cc1nc(N2CC(C)(C#N)C2)ccc1Cn1cc(C(=O)N[C@@H]2CCc3c2n[nH]c3C)cn1 [Example 41, 1-{[6-(3-Cyano-3-methylazetidin-1-yl)-2-methylpyridin-3-yl]methyl}-N-[(6R)-3-methyl-2H,4H,5H,6H-cyclopenta[c]pyrazol-6-yl]-1H-pyrazole-4-carboxamide]
